{
  "source": "paper PMC9467586",
  "about": "“Development of novel 9-O-substituted-13-octylberberine derivatives as potential anti-hepatocellular carcinoma agents” (Journal of Enzyme Inhibition and Medicinal Chemistry, 2022)",
  "key": {"[1]": {"tested_on": "H22 liver cancer xenograft", "assay": "In vivo anti-HCC assay, H22 liver cancer xenograft mouse model", "set-up": "species or system mice", "details": "intravenous; for tumour inhibitory rate (TIR, w/w): once a day for 21 days, H22 mice", "description": "Five-week-old male Institute of Cancer Research (ICR) mice were purchased from Shanghai SLAC Laboratory Animals Co. Ltd. Briefly, a total of 1 × 10^6 H22 cells were subcutaneously inoculated into the right flank of ICR mice according to protocols of tumour transplant research, to initiate tumour growth. After incubation for one day, mice were weighed and randomly divided into 5 groups of 8 animals. The groups were administered berberine (30 mg/kg) and 6k (15 or 30 mg/kg) in a vehicle of 10% DMF/2% Tween 80/88% saline, respectively. Vehicle and cyclophosphamide (20 mg/kg) were employed as negative and positive controls, respectively. Treatments were performed by intravenous injection once per day for a total of 21 consecutive days. Body weights and tumour volumes were measured every 2 days. The mice were sacrificed after the treatments, and the tumours were excised and weighed. The tumour volume and inhibition rate (w/w) were calculated as follows: tumour volume = L × W^2/2, where L is the length and W is the width; tumour inhibitory ratio (%) = (1-average tumour weight of treated group/average tumour weight of control group) × 100%. All procedures were performed following institutional approval in accordance with the NIH Guide for the Care and Use of Laboratory Animals."}, "HepG2 cells [2]": {"tested_on": "HepG2 cells", "assay": "Annexin V-FITC/PI apoptosis assay, flow cytometry", "assay_type": "cell-based, human", "details": "72 h (control 6.28%)", "description": "Briefly, after treatment with or without 6k at indicated concentrations for 72 h, the cells were washed twice in PBS, centrifuged and resuspended in 500 μL AnnexinV binding buffer. The cells were then harvested, washed and stained with 5 μL Annexin V-FITC and 5 μL PI in the darkness for 15 min. Apoptosis was analysed using a FACS Calibur flow cytometer (BectoneDickinson, San Jose, CA, USA)."}, "duplex DNA (F10T)": {"tested_on": "duplex DNA (F10T)", "assay": "FRET-melting assay, F10T (duplex DNA model)", "assay_type": "binding", "details": "2 μM compounds"}, "HepG2 cells [3]": {"tested_on": "HepG2 cells", "assay": "In vitro antiproliferative MTT assay, HepG2 cells", "assay_type": "cell-based, human", "details": "Homo sapiens, 72 h, mean ± SD (n = 3), read-out: IC50 (antiproliferative activity against HepG2 cells)", "description": "(§1) HepG2, Sk-Hep-1, Huh-7, Hep3B and L-02 cells were purchased from Nanjing Key Gen Biotech Co. Ltd. (Nanjing, China). The cytotoxicity of test compounds was determined using an MTT assay. Briefly, the cell lines were incubated at 37 °C in a humidified 5% CO2 incubator for 24 h in 96-microwell plates. After medium removal, 100 μL of culture medium with 0.1% DMSO containing test compounds at different concentrations was added to each well and incubated at 37 °C for another 72 h. The MTT (5 mg/mL in PBS) was added and incubated for another 4 h, the optical density was detected with a microplate reader at 490 nm. The IC50 values were calculated according to the dose-dependent curves. All the experiments were repeated in at least three independent experiments."}, "Sk-Hep-1 cells": {"tested_on": "Sk-Hep-1 cells", "assay": "In vitro antiproliferative MTT assay, Sk-Hep-1 cells", "assay_type": "cell-based, human", "details": "Homo sapiens, SK-HEP1, 72 h, mean ± SD (n = 3)", "description": "as §1"}, "Huh-7 cells": {"tested_on": "Huh-7 cells", "assay": "In vitro antiproliferative MTT assay, Huh-7 cells", "assay_type": "cell-based, human", "details": "Homo sapiens, 72 h, mean ± SD (n = 3)", "description": "as §1"}, "[4]": {"tested_on": "p-cdc25c, cdc2 and cyclin B1", "assay": "Western blot of G2/M-related proteins", "assay_type": "cell-based, human", "details": "HepG2, 72 h, concentration-dependent", "description": "HepG2 cells were incubated with different doses of 6k for 72 h. Cells were collected, centrifuged, and washed two times with ice-cold PBS. The pellet was then re-suspended in lysis buffer. After the cells were lysed on ice for 20 min, lysates were centrifuged at 13000 g at 4 °C for 15 min. The protein concentration in the supernatant was determined using the BCA protein assay reagents. Equal amounts of protein (20 μg) were resolved using sodium dodecyl sulfate-polyacrylamide gel electrophoresis (SDS-PAGE) (10–12% acrylamide gels) and transferred to PVDF membrane. Membranes were blocked for 1 h at room temperature. Membranes were then incubated with primary antibodies against p-cdc25c, cdc2, cyclin B1, Bax, Bcl-2, cytochrome C, caspase-3, VDAC1 and β-actin, the membrane being gently rotated overnight at 4 °C. The bound antibodies were detected using horseradish peroxidase (HRP)-conjugated second antibodies and visualised by the enhanced chemiluminescent reagent."}, "c-MYC G4 DNA (FPu18T)": {"tested_on": "c-MYC G4 DNA (FPu18T)", "assay": "FRET-melting assay, FPu18T (c-MYC G4 DNA model)", "details": "2 μM compounds"}, "normal hepatocytes L-02": {"tested_on": "normal hepatocytes L-02", "assay": "MTT cytotoxicity assay, normal hepatocytes L-02", "assay_type": "cell-based", "details": "Hepatocyte; normal hepatocytes L-02, MTT, 72 h, mean ± SD (n = 3)", "description": "as §1"}, "Hep3B cells": {"tested_on": "Hep3B cells", "assay": "In vitro antiproliferative MTT assay, Hep3B cells", "assay_type": "cell-based, human", "details": "Homo sapiens, 72 h, mean ± SD (n = 3)", "description": "as §1"}, "HepG2 cells [5]": {"tested_on": "HepG2 cells", "assay": "Mitochondrial membrane potential (MMP) measurement with JC-1", "assay_type": "cell-based, human", "details": "72 h (control 1.90%)", "description": "HepG2 cells were incubated with 6k as described above. After incubation for 72 h, the cells were washed in PBS and resuspended in 500 μL JC-1 incubation buffer at 37 °C for 15 min. Then, […] was immediately assessed for a red fluorescence using a microplate reader (ELx80, Bio-Tek, USA). The fluorescent signal of monomers was measured with an excitation wavelength of 488 nm. The percentage of cells with healthy or collapsed mitochondrial membrane potentials was monitored by flow cytometry analysis (BectoneDickinson, San Jose, CA, USA)."}, "HepG2 cells [6]": {"tested_on": "HepG2 cells", "assay": "Cell cycle analysis by PI staining and flow cytometry", "assay_type": "cell-based, human", "details": "for G2 phase cell percentage: 72 h (control 18.00%); for S phase cell percentage: 72 h (control 22.95%); for G1 phase cell percentage: 72 h (control 59.05%)", "description": "HepG2 cells were seeded into 6-well plates and incubated at 37 °C in a humidified 5% CO2 incubator for 24 h, and then treated with or without 6k at indicated concentrations for another 72 h. The collected cells were fixed by adding 70% ethanol at 4 °C for 12 h. Subsequently, the cells were resuspended in PBS containing 100 μL RNase A and 400 μL of PI for 30 min. The DNA content of the cells was measured using a FACS Calibur flow cytometer (BectoneDickinson, San Jose, CA, USA)."}},
  "data": [
    {"smiles": "CCCCCCCCc1c2[n+](cc3c(OCCCCCCCCN4CCN(C)CC4)c(OC)ccc13)CCc1cc3c(cc1-2)OCO3.[Br-]", "note": "[Compound 6k, 10-Methoxy-9-((8–(4-methylpiperazin-1-yl)octyl)oxy)-13-octyl-5,6-dihydro-[1,3]dioxolo[4,5-g]isoquinolino[3,2-a]isoquinolin-7-ium bromide]", "values": [
      {"measurement": "tumour inhibitory rate (TIR, w/w)", "setting": "[1]; 15 mg/kg", "result": 50.4, "unit": "%"},
      {"measurement": "tumour inhibitory rate (TIR, w/w)", "setting": "[1]; 30 mg/kg", "result": 61.1, "unit": "%"},
      {"measurement": "mice body weights during treatment", "setting": "[1]; 15 or 30 mg/kg, 21 days", "result": "didn’t cause significant loss in mice body weights"},
      {"measurement": "total apoptotic cells (Q2 + Q3)", "setting": "HepG2 cells [2]; HepG2, 0.25 μM", "result": 16.42, "unit": "%"},
      {"measurement": "total apoptotic cells (Q2 + Q3)", "setting": "HepG2 cells [2]; HepG2, 0.50 μM", "result": 34.29, "unit": "%"},
      {"measurement": "total apoptotic cells (Q2 + Q3)", "setting": "HepG2 cells [2]; HepG2, 1.0 μM", "result": 59.17, "unit": "%"},
      {"measurement": "ΔTm(B) = Tm(F10T + compound) - Tm(F10T)", "setting": "duplex DNA (F10T)", "result": 0.8, "unit": "°C"},
      {"measurement": "IC50", "setting": "HepG2 cells [3]", "result": "0.76 ± 0.06", "unit": "µM"},
      {"measurement": "melting point", "result": "151 to 153", "unit": "°C"},
      {"measurement": "IC50", "setting": "Sk-Hep-1 cells", "result": "1.69 ± 0.07", "unit": "µM"},
      {"measurement": "IC50", "setting": "Huh-7 cells", "result": "0.62 ± 0.04", "unit": "µM"},
      {"measurement": "cdc2", "setting": "[4]", "result": "inhibited cdc2 kinase activation"},
      {"measurement": "cdc25c phosphorylation (p-cdc25c)", "setting": "[4]", "result": "significantly promoted cdc25c phosphorylation"},
      {"measurement": "cyclin B1", "setting": "[4]", "result": "reduced cyclin B1 binding"},
      {"measurement": "ΔTm(A) = Tm(FPu18T + compound) - Tm(FPu18T)", "setting": "c-MYC G4 DNA (FPu18T)", "result": 13.8, "unit": "°C"},
      {"measurement": "IC50", "setting": "normal hepatocytes L-02", "result": "7.68 ± 0.67", "unit": "µM"},
      {"measurement": "IC50", "setting": "Hep3B cells", "result": "1.6 ± 0.11", "unit": "µM"},
      {"measurement": "percentage of cells with green fluorescence (JC-1)", "setting": "HepG2 cells [5]; HepG2, 0.25 μM", "result": 10.33, "unit": "%"},
      {"measurement": "percentage of cells with green fluorescence (JC-1)", "setting": "HepG2 cells [5]; HepG2, 1.0 μM", "result": 37.52, "unit": "%"},
      {"measurement": "Effect on cell cycle progression", "setting": "HepG2 cells [6]; HepG2, 0.25-1.0 μM, 72 h", "result": "cell cycle arrest at G2/M phase"},
      {"measurement": "G2 phase cell percentage", "setting": "HepG2 cells [6]; HepG2, 6k 0.25 μM", "result": 23.56, "unit": "%"},
      {"measurement": "S phase cell percentage", "setting": "HepG2 cells [6]; HepG2, 6k 0.25 μM", "result": 16.19, "unit": "%"},
      {"measurement": "G1 phase cell percentage", "setting": "HepG2 cells [6]; HepG2, 6k 0.25 μM", "result": 60.24, "unit": "%"},
      {"measurement": "G2 phase cell percentage", "setting": "HepG2 cells [6]; HepG2, 6k 0.50 μM", "result": 29.49, "unit": "%"},
      {"measurement": "S phase cell percentage", "setting": "HepG2 cells [6]; HepG2, 6k 0.50 μM", "result": 22.68, "unit": "%"},
      {"measurement": "G1 phase cell percentage", "setting": "HepG2 cells [6]; HepG2, 6k 0.50 μM", "result": 47.82, "unit": "%"},
      {"measurement": "G2 phase cell percentage", "setting": "HepG2 cells [6]; HepG2, 6k 1.0 μM", "result": 32.16, "unit": "%"},
      {"measurement": "S phase cell percentage", "setting": "HepG2 cells [6]; HepG2, 6k 1.0 μM", "result": 26.95, "unit": "%"},
      {"measurement": "G1 phase cell percentage", "setting": "HepG2 cells [6]; HepG2, 6k 1.0 μM", "result": 40.88, "unit": "%"},
      {"measurement": "total cell percentages of G1 and S phases", "setting": "HepG2 cells [6]; HepG2, 6k 1.0 μM, 72 h (control 82.00%)", "result": 67.83, "unit": "%"}
    ]}
  ]
}
